In ChEMBL document CHEMBL1201862, “PubChem BioAssay data set” (2004):
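48-hour exposure; five concentrations; linearly interpolated endpoints. At the GI50, growth is halved.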 Calls of active or inactive are those of the source. Rule as the data show it: active = GI50 up to about 1.1 µM and inactive = higher.

Key:
Test in all cases: NCI anticancer screen, dose series, 48 h
[1] = system: MDA-MB-435
[2] = system: OVCAR-5
[3] = system: SNB-75
[4] = system: RXF 393
[5] = system: HT-29
[6] = system: SK-MEL-2
[7] = system: HOP-62
[8] = system: SK-MEL-28
[9] = system: HCC 2998
[10] = system: MDA-MB-231
[11] = system: SR
[12] = system: SNB-19
[13] = system: NCI/ADR-RES
[14] = system: UO-31
[15] = system: Malme-3M
[16] = system: UACC-62
[17] = system: OVCAR-3
[18] = system: NCI-H522
[19] = system: EKVX
[20] = system: ACHN

Compound | GI50 [1] | GI50 [2] | GI50 [3] | GI50 [4] | GI50 [5] | GI50 [6] | GI50 [7] | GI50 [8] | GI50 [9] | GI50 [10] | GI50 [11] | GI50 [12] | GI50 [13] | GI50 [14] | GI50 [15] | GI50 [16] | GI50 [17] | GI50 [18] | GI50 [19] | GI50 [20]
Cc1ccc(S(=O)(=O)N2CCSCCSCCSCCSCC2)cc1 | 73.8 µM (inactive) | > 100 µM (inactive) | 11.9 µM (inactive) | > 27.9 µM (inactive) | > 100 µM (inactive) | > 34.6 µM (inactive) | > 40.6 µM (inactive) | > 88.5 µM (inactive) | > 100 µM (inactive) | 19.5 µM (inactive) | > 74.3 µM (inactive) | 24.8 µM (inactive) | 32 µM (inactive) | 50.2 µM (inactive) | > 72.8 µM (inactive) | 17.1 µM (inactive) | 35.5 µM (inactive) | 33.6 µM (inactive) | 48.5 µM (inactive) | > 58.3 µM (inactive)
COc1ccc2c(c1)[C@@H]1c3cc(OC)c(OC)cc3CCN1CCC2 | > 100 µM (inactive) | > 100 µM (inactive) | > 100 µM (inactive) | > 100 µM (inactive) | 93.1 µM (inactive) | > 100 µM (inactive) | > 100 µM (inactive) | > 100 µM (inactive) | > 100 µM (inactive) | > 100 µM (inactive) | 76 µM (inactive) | > 100 µM (inactive) | > 100 µM (inactive) | 72.9 µM (inactive) | > 100 µM (inactive) | > 100 µM (inactive) | > 100 µM (inactive) | > 100 µM (inactive) | > 100 µM (inactive) | > 100 µM (inactive)
N#CC(=C1CCN(CCCC(=O)c2ccc(F)cc2)CC1)c1ccccc1 | > 100 µM (inactive) | > 100 µM (inactive) | > 100 µM (inactive) | > 100 µM (inactive) | 62.2 µM (inactive) | > 100 µM (inactive) | – | > 100 µM (inactive) | > 100 µM (inactive) | > 100 µM (inactive) | > 100 µM (inactive) | > 100 µM (inactive) | > 100 µM (inactive) | > 100 µM (inactive) | > 100 µM (inactive) | > 100 µM (inactive) | – | 21.3 µM (inactive) | > 100 µM (inactive) | > 100 µM (inactive)
N[C@H](C(=O)O)[C@H]1ON=C(Cl)[C@@H]1O | 3.56 µM (inactive) | 5.6 µM (inactive) | 26.2 µM (inactive) | 58.3 µM (inactive) | 0.286 µM (active) | 56.1 µM (inactive) | 2.13 µM (inactive) | 3.24 µM (inactive) | 1.15 µM (inactive) | 12.2 µM (inactive) | 1.73 µM (inactive) | 5.58 µM (inactive) | 6.49 µM (inactive) | 18.3 µM (inactive) | 24.1 µM (inactive) | 3.3 µM (inactive) | 18.5 µM (inactive) | 0.942 µM (active) | 5.11 µM (inactive) | 10.7 µM (inactive)
CCOc1ccccc1/N=N/C1C(=O)N(C(=O)CC(=O)Nc2ccccc2OC)N=C1C (stereo not given) | > 100 µM (inactive) | > 100 µM (inactive) | 16.3 µM (inactive) | 24.2 µM (inactive) | > 100 µM (inactive) | 55.7 µM (inactive) | 18.7 µM (inactive) | > 100 µM (inactive) | > 100 µM (inactive) | 30.3 µM (inactive) | > 10 µM (inactive) | – | 54.7 µM (inactive) | 27.8 µM (inactive) | > 100 µM (inactive) | 25.7 µM (inactive) | > 100 µM (inactive) | 42.9 µM (inactive) | 0.427 µM (active) | > 100 µM (inactive)
N#C[BH2-][n+]1ccc(C(=O)NNCc2ccc(F)cc2)cc1 | > 100 µM (inactive) | > 100 µM (inactive) | > 100 µM (inactive) | > 100 µM (inactive) | – | > 100 µM (inactive) | – | > 100 µM (inactive) | > 100 µM (inactive) | > 100 µM (inactive) | > 100 µM (inactive) | > 100 µM (inactive) | > 100 µM (inactive) | 59.7 µM (inactive) | > 100 µM (inactive) | > 100 µM (inactive) | > 100 µM (inactive) | > 100 µM (inactive) | > 100 µM (inactive) | > 100 µM (inactive)
COc1ccc(OC)c(C2Cc3cnc4nc(N)nc(N)c4c3C2)c1 (stereo not given) | 26.1 µM (inactive) | 32.9 µM (inactive) | 17.4 µM (inactive) | 19.9 µM (inactive) | 20.8 µM (inactive) | 21.1 µM (inactive) | 34.4 µM (inactive) | 33.7 µM (inactive) | 26.3 µM (inactive) | 23.7 µM (inactive) | 19.4 µM (inactive) | 38.4 µM (inactive) | > 100 µM (inactive) | 71.9 µM (inactive) | 20.8 µM (inactive) | 18.6 µM (inactive) | 20.5 µM (inactive) | 24.1 µM (inactive) | 25.6 µM (inactive) | 32.6 µM (inactive)
